# Data taken from US20120232062A1, “AZAINDAZOLES TO TREAT FLAVIVIRIDAE VIRUS INFECTION” (EIGER BIOPHARMACEUTICALS, INC., priority 2009, published 2012).
# Test system: HCV genotype 1b
# Experiment: HCV 1b replicon luciferase assay
# Format: cell-based
# Conditions: Hepatitis C virus, 48 h, read-out: EC50 in the 48 hour 1b replicon assay, 48 hour
# Excerpt: A suitable 1b HCV RNA replicon assay uses the Huh7 cell line which contains an HCV 1b RNA replicon with a stable luciferase (LUC) reporter. This construct contains modifications that make the cell line more robust and provides stable LUC expression for antiviral screening. The LUC reporter is used as an indirect measure of HCV replication. The activity of the LUC reporter is directly proportional to HCV RNA levels and positive control antiviral compounds behave comparably using LUC endpoints. […]
# Fresh growth medium is prepared just before use. The container used in the procedure is a 10 cm diameter culture dish. HCV replicon reporter cell lines are used. Prepare complete medium: add FBS and appropriate additives as described in “Culture Media”, below. Pre-warm the medium in a 37° C. thermostat water bath. Remove the dish from a 37° C. CO2 incubator. Check the cell name and complete medium and passage number marked on the dish. Aspirate the medium carefully and add 1 ml PBS to rinse the cells. Remove and discard the solution and add 1 ml of 0.25% Trypsin/0.02% EDTA. Rinse the cells with the added Trypsin/EDTA to ensure all the cells have been rinsed. Remove the Trypsin/EDTA with a vacuum pump and incubate at 37° C. for 3-5 minutes. Examine the cell morphology under an inverted microscope to confirm that a single cell suspension is clearly visible. Add 3 ml of complete medium to the dish and suspend the cell by gentle pipetting. Count the cell numbers with a hematometer. Adjust cell density to 100 k/ml by adding appropriate volume of the complete medium. Add 100 μl of cell suspension to each well of a 96-well white plate; the cell density is thus 10 k per well. Mark the plate with cell name, passage number, seeding density, date and the name of the operator. Place the 96-well assay plate in 37° C. 5% CO2 incubator for 24 hours.
# Compounds are prepared or provided at 25 mM in 100% DMSO. This is the compound stock solution. The dilution procedure should be performed in a cell culture hood. Dispense the stock solution into the second column of a 96-well plate. Prepare 9-step (10 concentrations total), 5-fold serial dilutions by transferring 10 μA of the compound into the next well containing 40 μA of DMSO. Repeat for all compounds. Aspirate 2 μl of the above compound solution from each well and add into 198 μl complete media using a 12-channel pipetter to obtain the 10-fold concentration compound solution with 1% DMSO, mix well.
# Remove the 96-well assay plate from the 37° C./5% CO2 incubator, examine the cell morphology under an inverted microscope. In a cell culture hood, add 10 μl of the 10× concentration compounds solution into each well on the 96-well assay plate. All compound's dose responses are done in duplicate. The starting final concentration of the compounds is 25 μM, and DMSO final concentration 0.1%. Mark the plate with compound code(s) and concentrations. Place the 96-well assay plate into CO2 incubator for 48 hours. Add 30 μl of Stead-Glo Luciferase System (Promega) reagent to each well and mix by gentle shaking on a plate shaker for 5 minutes to allow throughout cell lysis. Measure the luminescence with Envision (Perkin Elmer) with an integration time of 2 seconds. Record and analyze the data.
# The cell culture media is DMEM complete: DMEM (Life Technologies #41965-039) supplemented with 10% FCS, 2 mM Glutamin (Life Technologies #25030-024), Penicillin (100 IU/ml)/Streptomycin (100 μg/ml) (Life Technologies #15140-114) and 1× nonessential amino acids (Life Technologies #11140-035). G418 (“Geneticin”, Life Technologies): concentrations are given as weight per volume of the original substance. Specific activity of a typical batch is ca. 700 μg/mg as stated by the manufacturer. […] Therefore each new batch of G418 should be tested individually e.g. in an electroporation experiment using different selection conditions (0.2-1 mg/ml).
row,SMILES,EC50 [µM]
1,CCC(CC)Oc1ccc2c(C(=O)NC3CCNCC3)n[nH]c2n1 [EBP726],< 3
2,Cc1ccc(C(=O)Nc2nn(C)c3nc(N4CCCCCC4)ccc23)s1 [EBP841],< 3

# Same assay, conditions: Hepatitis C virus, Huh-7, 48 h, Table 1; Huh7 HCV 1b replicon, luciferase reporter, 48 hours; read-out: 1b EC50
row,SMILES,EC50 [µM]
1,Cn1nc(C(=O)NC2CCN(CCC(F)(F)F)CC2)c2ccc(N3CCCCCCC3)nc21 [compound 1301],5.1
2,Cn1nc(-c2cnc([C@@H]3CCCN3CC3CCCCC3)s2)c2ccc(N3CCCCCCC3)nc21 [compound 1264],2.4
3,Cn1nc(C(=O)NC2CCN(C(=O)C3CCCCC3)CC2)c2ccc(N3CCCCCC3)nc21 [compound 1030],4.8
4,CCCCCCNc1ccc2c(C(=O)NC3CCCNC3)nn(-c3cccc(Cl)c3C)c2n1 (centres unmarked) [compound 1378],2.6
5,Cn1nc(-c2cnc(C(=O)NC3CCNCC3)s2)c2ccc(N3CCCCCC3)nc21 [compound 1127],2.9
6,Cn1nc(-c2c[nH]c(C3CCNCC3)n2)c2ccc(N3CCCCCC3)nc21 [compound 1094],6.5
7,CCC(CC)n1nc(C(=O)NC2CCNCC2)c2ccc(N3CCCCCC3)nc21 [compound 859],2.8
8,Clc1ccc(Cn2nc(COCCN3CCCCC3)c3ccc(N4CCCCCCC4)nc32)cc1 [compound 1204],5.4
9,O=C(NC1CCNCC1)c1nn(Cc2cccc(Cl)c2)c2nc(N3CCCCCC3)ccc12 [compound 854],7.2
10,CCC(CC)Oc1ccc2c(NC(=O)[C@H]3CC[C@H](N)CC3)nn(C)c2n1 [compound 949],5.7
11,CC(C)CNc1ccc2c(C(=O)NC3CCNCC3)nn(C)c2n1 [compound 688],4.9
12,O=C(NC1CCNCC1)c1nn(CC2CCCCC2)c2nc(N3CCCCCC3)ccc12 [compound 845],2
13,Cn1nc(C(=O)NC2CCN(CC3CCCCC3)CC2)c2ccc(N(Cc3ccccc3)C3CCCCCC3)nc21 [compound 1184],0.168
14,CCC(CC)Oc1ccc2c(NC(=O)c3ccncc3)nn(C)c2n1 [compound 939],4.7
15,Clc1ccc(Cn2nc(COCCCN3CCCCC3)c3ccc(N4CCCCCCC4)nc32)cc1 [compound 1205],4
16,Cn1nc(-c2cnc(C(=O)NCC3CCCCC3)s2)c2ccc(N3CCCCCCC3)nc21 [compound 1251],1
17,O=C(NC1CCN(CCN2CCCCC2)CC1)c1nn(CC2CC2)c2nc(N3CCCCCC3)ccc12 [compound 1489],0.55
18,O=C(CC1CCNCC1)Nc1nn(Cc2ccc(Cl)cc2)c2nc(N3CCCC3)ccc12 [compound 813],6.8
19,Cn1nc(CN2CCNCC2)c2ccc(N3CCCCCC3)nc21 [compound 812],4.6
20,Cn1nc(-c2coc(CC3CCNCC3)n2)c2ccc(N3CCCCCC3)nc21 [compound 1096],2.8

row,SMILES,EC50 [µM]
1,Cn1nc(C(=O)NC2CCN(CC(F)F)CC2)c2ccc(N3CCCCCCC3)nc21 [compound 1223],2.8
2,CC1CC(NC(=O)c2n[nH]c3nc(N4CCCCCC4)ccc23)CCN1 (centres unmarked) [compound 734],2.6
3,Cn1nc(NC(=O)C2CCCCC2)c2ccc(N3CCCCCC3)nc21 [compound 835],2.4
4,CN(c1ccc2c(C(=O)NC3CCNCC3)nn(C)c2n1)C1CCCCCC1 [compound 891],1.1
5,Cn1nc(C(=O)NC2CCN(Cc3ccc(-c4ccccc4)cc3)CC2)c2ccc(O)nc21 [compound 972],3.7
6,Cn1nc(C(=O)NC2CCCNC2)c2ccc(N3CCCCCC3)nc21 (centres unmarked) [compound 698],3.8
7,Cn1nc(-c2nnc(C3CCCCN3CCN3CCCCC3)o2)c2ccc(N3CCCCCCC3)nc21 (centres unmarked) [compound 1326],4.8
8,CCC(CC)Oc1ccc2c(C(=O)NC3CCNCC3)nn(C)c2n1 [compound 816],2.4
9,C=CCCCn1nc(C(=O)NC2CCN(CC=C)CC2)c2ccc(N3CCCCCC3)nc21 [compound 1104],2.2
10,Cn1nc(C(=O)NC2CCNCC2)c2ccc(OCc3ccccc3-c3nc4ccccc4s3)nc21 [compound 1066],2.5
11,Cn1nc(C(=O)NC2CCNCC2)c2ccc(OCc3ccccc3-c3cccs3)nc21 [compound 1101],0.8
12,COCC1CCCN1CCCc1nn(C)c2nc(N3CCCCCCC3)ccc12 (centres unmarked) [compound 1453],2.8
13,Cn1nc(C(=O)Nc2cccc(S(N)(=O)=O)c2)c2ccc(N3CCCCCC3)nc21 [compound 824],3.5
14,CCC(CC)Oc1ccc2c(NC(=O)C3CC(C)(C)NC(C)(C)C3)nn(C)c2n1 [compound 950],7.9
15,Cn1nc(CN[C@H]2CCNC2)c2ccc(N3CCCCCC3)nc21 [compound 908],8.7
16,CC1CCC(Oc2ccc3c(C(=O)NC4CCNCC4)nn(C)c3n2)C(C(C)C)C1 (centres unmarked) [compound 874],1.7
17,Cn1nc(NC(=O)c2ccccc2C(F)(F)F)c2ccc(N3CCCCCC3)nc21 [compound 836],4.1
18,COc1cncc(-c2ccccc2COc2ccc3c(C(=O)NC4CCNCC4)nn(C)c3n2)c1 [compound 1119],1.5
19,O=C(/C=C/c1cccnc1)Nc1nn(Cc2ccc(Cl)cc2)c2nc(N3CCCCCC3)ccc12 [compound 747],9
20,CC1CCC(Oc2ccc3c(C(=O)NC4CCNCC4)nn(C)c3n2)C1 (centres unmarked) [compound 946],3.7

row,SMILES,EC50 [µM]
1,O=C(NC1CCNCC1)c1nn(CCc2ccc(Cl)cc2)c2nc(N3CCCCCC3)ccc12 [compound 855],3.7
2,Cn1nc(NC(=O)c2ccncc2Cl)c2ccc(N3CCCCCC3)nc21 [compound 833],2.9
3,Cn1nc(C(=O)NC2CCN(CCC3CCCCC3)CC2)c2ccc(N3CCCCCCC3)nc21 [compound 1299],0.31
4,Cn1nc(-c2cnc(C(=O)NCC3CCNCC3)s2)c2ccc(N3CCCCCC3)nc21 [compound 1097],3.4
5,Cn1nc(-c2cnc(C(=O)NCc3ccccc3)s2)c2ccc(N3CCCCCCC3)nc21 [compound 1250],1.4
6,Cn1nc(C(=O)NC2CCNCC2)c2ccc(Oc3ccccc3)nc21 [compound 955],3.4
7,Cn1nc(C(=O)NC2CCNCC2)c2ccc(NC3CCCCCCC3)nc21 [compound 885],0.889
8,CC1CCCCN1CCCc1nn(C)c2nc(N3CCCCCCC3)ccc12 (centres unmarked) [compound 1454],1.6
9,Cn1nc(-c2nnc(C3CCNC3)o2)c2ccc(N3CCCCCCC3)nc21 (centres unmarked) [compound 1363],2.7
10,Cn1nc(-c2cnc(C(=O)NC3CCCN(CCN4CCCCC4)C3)s2)c2ccc(N3CCCCCCC3)nc21 (centres unmarked) [compound 1316],0.55
11,Cn1nc(-c2nnc(C3CCN(CCN4CCCCC4)C3)o2)c2ccc(N3CCCCCCC3)nc21 (centres unmarked) [compound 1368],4.8
12,COC[C@@H]1CCCN1CCCc1nn(C)c2nc(N3CCCCCCC3)ccc12 [compound 1465],4.7
13,Cn1nc(C(=O)NC2CCN(Cc3ccncc3)CC2)c2ccc(N3CCCCCC3)nc21 [compound 1043],1.2
14,CCCn1nc(C(=O)NC2CCN(CCN3CCCCC3)CC2)c2ccc(N3CCCCCC3)nc21 [compound 1486],0.76
15,CC(C)CN(C)c1ccc2c(C(=O)NC3CCCNC3)nn(C)c2n1 (centres unmarked) [compound 686],2.6
16,CC(c1ccncc1)N1CCC(NC(=O)c2nn(C)c3nc(N4CCCCCCC4)ccc23)CC1 (centres unmarked) [compound 1304],1.4
17,CN(CC1CCCCC1)c1ccc2c(C(=O)NC3CCNCC3)nn(C)c2n1 [compound 867],0.934
18,CCC(CC)Oc1ccc2c(NC(=O)c3ccccc3)nn(C)c2n1 [compound 942],8.6

# Same assay, conditions: Table 1; Huh7 HCV 1b replicon, luciferase reporter, 48 hours; read-out: 1b EC50
row,SMILES,EC50 [µM]
1,CCC(CC)Oc1ccc2c(NC(=O)c3ccc(C)s3)nn(C)c2n1 [compound 956],21
2,Cc1ccc(CN2CCC(NC(=O)c3nn(C)c4nc(N5CCCCCC5)ccc34)CC2)cc1 [compound 1039],2.6
